{"source": "ChEMBL document CHEMBL1131296", "about": "(J Med Chem, 1998)", "key": {"[1]": {"target": "T1, 5-hydroxytryptamine receptor 1A (Homo sapiens, UniProt P08908)", "T1 sequence (P08908 whole entry)": "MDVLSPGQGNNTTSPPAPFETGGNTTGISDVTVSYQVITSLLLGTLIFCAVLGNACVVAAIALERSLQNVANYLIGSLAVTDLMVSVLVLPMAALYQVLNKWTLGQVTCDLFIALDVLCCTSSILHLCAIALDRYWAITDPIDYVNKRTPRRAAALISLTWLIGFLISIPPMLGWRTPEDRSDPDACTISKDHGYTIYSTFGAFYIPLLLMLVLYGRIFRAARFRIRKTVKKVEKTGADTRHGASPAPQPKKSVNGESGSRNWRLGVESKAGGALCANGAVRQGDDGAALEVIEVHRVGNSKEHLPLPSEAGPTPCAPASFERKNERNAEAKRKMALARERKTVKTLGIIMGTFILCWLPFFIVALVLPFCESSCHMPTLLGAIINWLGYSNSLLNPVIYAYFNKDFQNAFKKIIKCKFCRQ", "test": "Binding affinity at human cloned 5-hydroxytryptamine 1A receptor expressed in HeLa cells by [3H]8-hydroxy-2-(di-n-propylamino)tetraline displacement.", "type": "cell-based"}, "[2]": {"target": "T2, Alpha-1D adrenergic receptor (Homo sapiens, UniProt P25100)", "T2 sequence (P25100 whole entry)": "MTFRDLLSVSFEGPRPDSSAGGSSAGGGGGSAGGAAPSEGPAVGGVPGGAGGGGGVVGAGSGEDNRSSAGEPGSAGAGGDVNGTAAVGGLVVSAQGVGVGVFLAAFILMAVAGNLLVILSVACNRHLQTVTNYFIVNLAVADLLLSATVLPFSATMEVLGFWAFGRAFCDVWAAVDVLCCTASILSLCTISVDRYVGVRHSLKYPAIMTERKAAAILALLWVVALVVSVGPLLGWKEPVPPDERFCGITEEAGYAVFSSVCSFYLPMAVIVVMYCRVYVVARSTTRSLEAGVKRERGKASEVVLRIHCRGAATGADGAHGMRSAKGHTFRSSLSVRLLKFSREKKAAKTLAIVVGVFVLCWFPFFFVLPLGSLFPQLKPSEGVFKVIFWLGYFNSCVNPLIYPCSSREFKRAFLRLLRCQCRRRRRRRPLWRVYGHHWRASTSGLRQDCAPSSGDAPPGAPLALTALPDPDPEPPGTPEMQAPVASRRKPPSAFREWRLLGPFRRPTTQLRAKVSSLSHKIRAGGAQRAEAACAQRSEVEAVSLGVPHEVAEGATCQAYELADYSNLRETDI", "test": "Binding affinity at human cloned Alpha-1D adrenergic receptor in chinese hamster ovary cells by [3H]prazosin displacement.", "type": "cell-based, CHO"}, "[3]": {"target": "T3, Alpha-1B adrenergic receptor (Homo sapiens, UniProt P35368)", "T3 sequence (P35368 whole entry)": "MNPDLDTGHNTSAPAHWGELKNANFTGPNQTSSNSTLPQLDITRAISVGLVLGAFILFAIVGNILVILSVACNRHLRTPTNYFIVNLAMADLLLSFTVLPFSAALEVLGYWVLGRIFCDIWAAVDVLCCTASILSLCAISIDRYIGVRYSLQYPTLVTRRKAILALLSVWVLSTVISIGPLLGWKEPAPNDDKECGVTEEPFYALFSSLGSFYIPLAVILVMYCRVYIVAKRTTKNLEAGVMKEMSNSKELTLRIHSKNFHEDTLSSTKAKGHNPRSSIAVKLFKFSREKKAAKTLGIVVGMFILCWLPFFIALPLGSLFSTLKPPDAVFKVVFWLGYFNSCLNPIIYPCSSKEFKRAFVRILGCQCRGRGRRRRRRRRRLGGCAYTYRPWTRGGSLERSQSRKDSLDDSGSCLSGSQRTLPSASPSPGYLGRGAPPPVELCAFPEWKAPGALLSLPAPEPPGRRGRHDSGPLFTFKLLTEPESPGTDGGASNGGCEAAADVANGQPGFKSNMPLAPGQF", "test": "Binding affinity at human cloned Alpha-1B adrenergic receptor in chinese hamster ovary cells by [3H]prazosin displacement.", "type": "cell-based, CHO"}, "[4]": {"target": "T4, Alpha-1B adrenergic receptor (Rattus norvegicus, UniProt P15823)", "T4 sequence (P15823 whole entry)": "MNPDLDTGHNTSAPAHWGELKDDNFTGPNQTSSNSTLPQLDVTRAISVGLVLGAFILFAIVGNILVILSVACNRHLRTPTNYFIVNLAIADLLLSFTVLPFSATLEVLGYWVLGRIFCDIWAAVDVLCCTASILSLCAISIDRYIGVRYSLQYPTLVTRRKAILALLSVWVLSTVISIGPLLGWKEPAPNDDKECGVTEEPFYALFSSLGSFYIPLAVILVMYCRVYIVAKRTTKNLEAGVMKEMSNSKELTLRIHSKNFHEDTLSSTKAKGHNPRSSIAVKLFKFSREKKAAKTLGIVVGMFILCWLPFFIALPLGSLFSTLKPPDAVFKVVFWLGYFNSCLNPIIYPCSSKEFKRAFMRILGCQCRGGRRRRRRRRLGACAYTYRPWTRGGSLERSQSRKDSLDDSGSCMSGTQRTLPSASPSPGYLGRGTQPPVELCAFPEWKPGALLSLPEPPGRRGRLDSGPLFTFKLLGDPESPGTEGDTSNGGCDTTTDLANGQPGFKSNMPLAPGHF", "test": "Antagonism of phenylephrine stimulated contraction of the rat isolated spleen.", "type": "functional, tissue-based", "details": "read-out: pA2 (converted)"}, "D(2) dopamine receptor": {"target": "D(2) dopamine receptor (Rattus norvegicus, UniProt P61169)", "sequence (P61169 whole entry)": "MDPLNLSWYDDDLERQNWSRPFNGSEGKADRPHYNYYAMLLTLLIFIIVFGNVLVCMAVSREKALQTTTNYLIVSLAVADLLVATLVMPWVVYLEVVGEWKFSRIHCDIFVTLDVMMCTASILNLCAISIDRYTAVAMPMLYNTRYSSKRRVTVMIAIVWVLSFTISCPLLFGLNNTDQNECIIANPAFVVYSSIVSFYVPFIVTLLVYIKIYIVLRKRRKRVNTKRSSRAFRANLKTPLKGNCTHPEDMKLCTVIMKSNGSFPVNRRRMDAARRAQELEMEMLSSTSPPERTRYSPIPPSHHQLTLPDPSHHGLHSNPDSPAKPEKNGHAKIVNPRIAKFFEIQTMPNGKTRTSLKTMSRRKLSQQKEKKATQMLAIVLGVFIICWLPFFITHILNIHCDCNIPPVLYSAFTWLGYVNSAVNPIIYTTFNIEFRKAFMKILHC", "test": "Binding affinity at native Dopamine receptor D2 in rat striatum by [3H]spiperone displacement.", "type": "tissue-based"}}}
{"smiles": "COc1cc2nc(N(C)CCCCCCN(C)C(=O)c3cccc(CN(C)C)c3)nc(N)c2cc1OC", "values": [{"measurement": "Ki", "setting": "[1]", "result": 741, "unit": "nM"}, {"measurement": "Ki", "setting": "[2]", "result": 0.245, "unit": "nM"}, {"measurement": "Ki", "setting": "[3]", "result": 0.166, "unit": "nM"}, {"measurement": "Kb", "setting": "[4]", "result": 37.2, "unit": "nM"}, {"measurement": "Ki", "setting": "D(2) dopamine receptor", "result": 1950, "unit": "nM"}]}
